Calls of active or inactive are those of the source.
Key:
[1] = target: T1, Short transient receptor potential channel 4 (Mus musculus, UniProt Q9QUQ5); assay: TRPC4 positive allosteric modulators, dose response, cell-based, HEK293 TRPC4/mu-opioid, Fluo-4 calcium, EC20 DAMGO (AID 434941); type: functional
T1 sequence (Q9QUQ5 whole entry): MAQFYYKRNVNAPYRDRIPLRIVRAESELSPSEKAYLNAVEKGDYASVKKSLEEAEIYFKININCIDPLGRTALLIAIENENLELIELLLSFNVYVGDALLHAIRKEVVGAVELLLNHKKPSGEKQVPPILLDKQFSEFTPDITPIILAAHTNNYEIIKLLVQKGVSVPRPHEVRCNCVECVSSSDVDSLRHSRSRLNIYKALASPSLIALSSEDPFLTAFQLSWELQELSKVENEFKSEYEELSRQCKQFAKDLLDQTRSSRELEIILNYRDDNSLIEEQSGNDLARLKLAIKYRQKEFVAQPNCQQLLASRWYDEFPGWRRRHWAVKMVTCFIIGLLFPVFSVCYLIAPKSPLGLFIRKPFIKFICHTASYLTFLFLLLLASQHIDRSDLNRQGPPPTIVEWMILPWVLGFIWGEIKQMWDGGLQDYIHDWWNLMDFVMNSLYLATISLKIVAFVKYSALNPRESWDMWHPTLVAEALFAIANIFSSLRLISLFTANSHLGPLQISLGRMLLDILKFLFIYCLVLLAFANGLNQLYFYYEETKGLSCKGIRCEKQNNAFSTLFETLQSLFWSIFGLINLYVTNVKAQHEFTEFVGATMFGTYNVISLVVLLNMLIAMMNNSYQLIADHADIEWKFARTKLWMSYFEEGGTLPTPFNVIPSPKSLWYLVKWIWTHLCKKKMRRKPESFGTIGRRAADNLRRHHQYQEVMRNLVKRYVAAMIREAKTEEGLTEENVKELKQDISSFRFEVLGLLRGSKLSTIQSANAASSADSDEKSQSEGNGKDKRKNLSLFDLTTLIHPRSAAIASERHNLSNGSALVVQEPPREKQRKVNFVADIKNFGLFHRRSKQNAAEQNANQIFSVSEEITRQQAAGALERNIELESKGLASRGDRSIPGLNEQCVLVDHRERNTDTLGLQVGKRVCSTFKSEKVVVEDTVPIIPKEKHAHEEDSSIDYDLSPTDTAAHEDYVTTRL

[2] = target: T2, Mannose-6-phosphate isomerase (Homo sapiens, UniProt P34949); assay: Confirmation of compounds inhibiting phosphomannose isomerase (PMI) via a fluorescence intensity assay using a high concentration of mannose 6-phosphate. [Related pubchem assays (depositor defined):AID1209, AID1220, AID1545, AID1553, AID1620]
T2 sequence (P34949 whole entry): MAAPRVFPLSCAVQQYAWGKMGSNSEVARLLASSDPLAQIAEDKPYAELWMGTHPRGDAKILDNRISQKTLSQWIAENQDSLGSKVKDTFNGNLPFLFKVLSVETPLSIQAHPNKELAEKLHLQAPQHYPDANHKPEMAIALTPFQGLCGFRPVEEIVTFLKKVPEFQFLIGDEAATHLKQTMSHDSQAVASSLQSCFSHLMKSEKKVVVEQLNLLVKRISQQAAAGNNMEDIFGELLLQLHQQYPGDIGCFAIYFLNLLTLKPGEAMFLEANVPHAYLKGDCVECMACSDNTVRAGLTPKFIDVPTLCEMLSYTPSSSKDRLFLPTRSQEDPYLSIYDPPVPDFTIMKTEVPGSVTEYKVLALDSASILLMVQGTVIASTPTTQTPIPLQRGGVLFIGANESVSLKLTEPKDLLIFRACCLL

[3] = target: T2, Mannose-6-phosphate isomerase; assay: PMI enzyme inhibitors, confirmation, biochemical, fluorescence intensity (AID 1535)
[4] = target: Alkaline phosphatase, placental type (Homo sapiens, UniProt P05187); assay: PLAP enzyme inhibitors, confirmation, biochemical, luminescence (AID 1512); type: functional
Chain of Alkaline phosphatase, placental type (P05187 whole entry, the tested form may be a part): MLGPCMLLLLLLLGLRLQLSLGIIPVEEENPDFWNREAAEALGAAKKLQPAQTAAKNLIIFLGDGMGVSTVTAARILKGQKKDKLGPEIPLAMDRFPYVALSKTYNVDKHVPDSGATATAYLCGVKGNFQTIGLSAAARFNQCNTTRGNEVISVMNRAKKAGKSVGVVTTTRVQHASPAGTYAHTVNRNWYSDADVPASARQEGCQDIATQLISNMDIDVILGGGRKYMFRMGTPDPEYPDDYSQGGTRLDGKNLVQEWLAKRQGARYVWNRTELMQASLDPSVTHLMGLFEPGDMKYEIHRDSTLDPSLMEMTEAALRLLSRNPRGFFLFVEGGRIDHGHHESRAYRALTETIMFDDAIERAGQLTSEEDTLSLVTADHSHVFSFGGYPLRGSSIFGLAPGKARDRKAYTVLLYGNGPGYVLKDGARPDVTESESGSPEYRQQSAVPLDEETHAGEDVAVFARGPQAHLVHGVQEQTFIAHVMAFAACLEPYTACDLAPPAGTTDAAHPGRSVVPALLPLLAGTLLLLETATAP

[5] = target: Envelope glycoprotein gp160 (Human immunodeficiency virus 1, UniProt Q6QLK5); assay: inhibitors of HIV fusion peptide binding, primary screen, biochemical, uHTS, fluorescence dequenching (AID 1986)
Chain of Envelope glycoprotein gp160 (Q6QLK5 whole entry, the tested form may be a part): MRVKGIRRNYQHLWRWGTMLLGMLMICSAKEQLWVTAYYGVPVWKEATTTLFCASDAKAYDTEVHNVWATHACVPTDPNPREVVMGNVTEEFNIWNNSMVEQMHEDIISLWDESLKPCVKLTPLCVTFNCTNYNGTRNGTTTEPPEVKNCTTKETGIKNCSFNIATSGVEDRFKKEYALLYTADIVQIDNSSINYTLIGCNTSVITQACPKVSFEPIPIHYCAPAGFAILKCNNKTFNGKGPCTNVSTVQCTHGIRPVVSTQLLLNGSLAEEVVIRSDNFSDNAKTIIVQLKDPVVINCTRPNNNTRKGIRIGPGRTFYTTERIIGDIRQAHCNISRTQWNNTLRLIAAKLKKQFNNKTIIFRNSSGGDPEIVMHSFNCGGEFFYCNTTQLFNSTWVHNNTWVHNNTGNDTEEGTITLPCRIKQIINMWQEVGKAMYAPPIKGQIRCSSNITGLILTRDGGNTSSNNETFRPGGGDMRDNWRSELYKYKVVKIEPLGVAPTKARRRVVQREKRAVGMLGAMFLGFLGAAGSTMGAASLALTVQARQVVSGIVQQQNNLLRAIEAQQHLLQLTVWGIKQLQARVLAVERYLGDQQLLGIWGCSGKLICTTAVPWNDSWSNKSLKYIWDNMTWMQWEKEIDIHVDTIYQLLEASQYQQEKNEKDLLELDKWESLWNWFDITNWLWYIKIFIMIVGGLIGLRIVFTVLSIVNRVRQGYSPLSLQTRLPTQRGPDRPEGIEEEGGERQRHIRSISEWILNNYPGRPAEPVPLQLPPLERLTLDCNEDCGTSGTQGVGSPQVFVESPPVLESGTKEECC

[6] = target: T1, Short transient receptor potential channel 4; assay: mouse TRPC4 channel inhibitors, dose response, cell-based, HEK293 TRPC4/mu-opioid, Fluo-4 calcium (AID 434942); type: functional;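 further: potency of inhibitors blocking the TRPC4 calcium response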
[7] = target: Type-1 angiotensin II receptor (Homo sapiens, UniProt P30556); assay: AT1 receptor agonists, dose response, selectivity assay for APJ receptor agonist project, cell-based, uHTS hits (AID 488865); type: functional;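 further: beta-arrestin recruitment to AT1 measured by enzyme fragment complementation luminescence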
Chain of Type-1 angiotensin II receptor (P30556 whole entry, the tested form may be a part): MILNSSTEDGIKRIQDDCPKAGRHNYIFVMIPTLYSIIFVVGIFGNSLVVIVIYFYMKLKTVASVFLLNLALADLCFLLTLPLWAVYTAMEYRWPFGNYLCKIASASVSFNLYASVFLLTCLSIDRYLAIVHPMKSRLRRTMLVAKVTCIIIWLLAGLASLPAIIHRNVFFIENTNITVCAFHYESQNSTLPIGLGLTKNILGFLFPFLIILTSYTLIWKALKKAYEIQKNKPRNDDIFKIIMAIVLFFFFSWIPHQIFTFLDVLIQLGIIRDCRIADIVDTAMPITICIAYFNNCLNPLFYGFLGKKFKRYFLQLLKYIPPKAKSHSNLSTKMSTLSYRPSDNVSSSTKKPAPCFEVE

[8] = target: T3, Tyrosine-protein phosphatase non-receptor type 7 (Homo sapiens, UniProt P35236); assay: redox-dependent HePTP inhibition, mechanism study, biochemical, fluorescence (AID 2068); type: functional
T3 sequence (P35236 whole entry): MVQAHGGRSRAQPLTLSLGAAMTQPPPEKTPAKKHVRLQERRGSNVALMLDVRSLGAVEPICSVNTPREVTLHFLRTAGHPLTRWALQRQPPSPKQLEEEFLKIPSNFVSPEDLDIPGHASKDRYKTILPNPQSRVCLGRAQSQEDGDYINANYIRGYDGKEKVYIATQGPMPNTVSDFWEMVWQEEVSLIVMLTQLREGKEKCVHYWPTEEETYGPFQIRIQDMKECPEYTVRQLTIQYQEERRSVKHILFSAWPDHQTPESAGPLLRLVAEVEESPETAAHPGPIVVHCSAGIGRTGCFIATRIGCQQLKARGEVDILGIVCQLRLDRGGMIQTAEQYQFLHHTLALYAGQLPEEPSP

[9] = target: T4, Dual specificity protein phosphatase 6 (Rattus norvegicus, UniProt Q64346); type: functional;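 further: confirmatory in vitro dose-response testing of MKP-3 inhibition; recombinant His-tagged MKP-3 made in E. coli BL21 with OMFP substrate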
T4 sequence (Q64346 whole entry): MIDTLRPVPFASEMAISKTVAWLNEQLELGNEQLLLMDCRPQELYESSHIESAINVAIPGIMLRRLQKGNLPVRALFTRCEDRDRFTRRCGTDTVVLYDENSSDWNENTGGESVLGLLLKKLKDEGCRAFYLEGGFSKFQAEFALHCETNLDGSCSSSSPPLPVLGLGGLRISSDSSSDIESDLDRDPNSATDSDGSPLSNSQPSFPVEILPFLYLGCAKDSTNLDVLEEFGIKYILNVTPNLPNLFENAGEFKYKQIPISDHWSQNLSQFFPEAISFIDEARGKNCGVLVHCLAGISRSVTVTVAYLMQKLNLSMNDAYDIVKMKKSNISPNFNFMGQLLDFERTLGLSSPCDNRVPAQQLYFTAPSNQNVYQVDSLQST

[10] = target: Mu-type opioid receptor (Homo sapiens, UniProt P35372); assay: SAR Analysis of Antagonists of the MOR Receptor using an Image-Based Assay - Set 3. [Related pubchem assays (depositor defined):AID1777, AID1785, AID1786, AID1966, AID2133, AID2136, AID2284, AID2285, AID2420]; type: functional
Chain of Mu-type opioid receptor (P35372 whole entry): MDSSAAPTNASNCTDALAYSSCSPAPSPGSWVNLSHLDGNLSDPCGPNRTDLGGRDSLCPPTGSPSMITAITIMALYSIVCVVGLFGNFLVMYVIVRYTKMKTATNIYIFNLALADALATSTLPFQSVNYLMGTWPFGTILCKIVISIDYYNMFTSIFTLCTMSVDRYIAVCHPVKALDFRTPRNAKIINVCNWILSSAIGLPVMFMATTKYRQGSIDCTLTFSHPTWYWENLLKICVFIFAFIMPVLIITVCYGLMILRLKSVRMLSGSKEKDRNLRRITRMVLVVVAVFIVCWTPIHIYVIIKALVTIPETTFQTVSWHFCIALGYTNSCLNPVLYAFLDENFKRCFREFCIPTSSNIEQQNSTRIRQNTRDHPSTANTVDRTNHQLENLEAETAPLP

[11] = target: T5, Kappa-type opioid receptor (Homo sapiens, UniProt P41145); assay: SAR analysis of small molecule antagonists of the kappa opioid receptor via a luminescent beta-arrestin assay - Set 6. [Related pubchem assays (depositor defined):AID1777, AID1778, AID1785, AID1786, AID1966, AID2133, AID2136, AID2285]; type: functional
T5 sequence (P41145 whole entry): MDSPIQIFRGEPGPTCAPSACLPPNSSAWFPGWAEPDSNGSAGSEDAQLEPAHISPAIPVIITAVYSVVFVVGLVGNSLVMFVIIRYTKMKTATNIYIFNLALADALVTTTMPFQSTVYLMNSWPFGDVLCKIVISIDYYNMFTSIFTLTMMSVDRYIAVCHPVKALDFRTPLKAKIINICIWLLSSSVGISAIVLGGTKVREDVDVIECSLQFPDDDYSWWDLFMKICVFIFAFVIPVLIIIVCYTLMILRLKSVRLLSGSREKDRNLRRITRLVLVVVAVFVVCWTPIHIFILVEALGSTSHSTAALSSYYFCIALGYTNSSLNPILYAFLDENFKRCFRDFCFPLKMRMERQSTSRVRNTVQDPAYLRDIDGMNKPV

[12] = target: Delta-type opioid receptor (Homo sapiens, UniProt P41143); assay: SAR Analysis of Antagonists of the DOR Receptor using an Image-Based Assay - Set 3. [Related pubchem assays (depositor defined):AID1777, AID1785]; type: functional;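 further: U2OS cells expressing DOR1 and beta-arrestin GFP stimulated with 100 nM SNC80; imaging of GFP-tagged beta-arrestin moving into spots after receptor activation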
Chain of Delta-type opioid receptor (P41143 whole entry): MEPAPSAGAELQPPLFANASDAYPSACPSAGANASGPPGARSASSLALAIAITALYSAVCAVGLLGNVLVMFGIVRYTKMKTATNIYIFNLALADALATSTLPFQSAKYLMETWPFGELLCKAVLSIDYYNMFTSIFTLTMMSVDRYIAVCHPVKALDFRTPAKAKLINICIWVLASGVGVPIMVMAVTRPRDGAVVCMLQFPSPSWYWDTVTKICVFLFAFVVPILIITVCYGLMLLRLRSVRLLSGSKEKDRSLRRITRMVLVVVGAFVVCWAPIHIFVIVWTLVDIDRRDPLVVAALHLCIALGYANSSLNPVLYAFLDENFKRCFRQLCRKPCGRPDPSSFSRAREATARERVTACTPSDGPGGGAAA

[13] = target: T5, Kappa-type opioid receptor; assay: SAR analysis of small molecule antagonists of the kappa opioid receptor via a luminescent beta-arrestin assay - Set 3. [Related pubchem assays (depositor defined):AID1777, AID1778, AID1785, AID1786, AID1966, AID2133, AID2136, AID2285, AID2495]; type: functional
[14] = target: T5, Kappa-type opioid receptor; assay: SAR analysis of Antagonists of the Kappa Opioid Receptor (KOR) using an Image-Based Assay - Set 4. [Related pubchem assays (depositor defined):AID1777, AID1785]; type: functional
[15] = NIH-3T3 fibroblast cytotoxicity, dose response, cytotoxicity control, cell-based, fluorescence, Alamar Blue, secondary assay (AID 2327); type: functional;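 further: NIH-3T3 mouse fibroblasts cultured with fluconazole at 8 µg/mL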
[16] = C. albicans growth with fluconazole, confirmation, fluorescence, retest (AID 2467); type: functional, cell-based
[17] = target: T6, Serine/threonine-protein phosphatase (Candida dubliniensis (strain CD36 / CBS 7987 / NCPF 3949 / NRRLY-17841) (Yeast), UniProt B9W6M3); assay: calcineurin pathway inhibitors in yeast reporter, dose response, S. cerevisiae, CDRE-lacZ, luminescence, secondary (AID 2388); type: functional, cell-based;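 further: yeast reporter cells carrying a calcineurin-responsive lacZ construct stimulated with calcium chloride; luminescent beta-galactosidase reporter signal in whole cells rather than isolated phosphatase activity; potency for inhibition where a drop in reporter signal means calcineurin blockade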
T6 sequence (B9W6M3 whole entry): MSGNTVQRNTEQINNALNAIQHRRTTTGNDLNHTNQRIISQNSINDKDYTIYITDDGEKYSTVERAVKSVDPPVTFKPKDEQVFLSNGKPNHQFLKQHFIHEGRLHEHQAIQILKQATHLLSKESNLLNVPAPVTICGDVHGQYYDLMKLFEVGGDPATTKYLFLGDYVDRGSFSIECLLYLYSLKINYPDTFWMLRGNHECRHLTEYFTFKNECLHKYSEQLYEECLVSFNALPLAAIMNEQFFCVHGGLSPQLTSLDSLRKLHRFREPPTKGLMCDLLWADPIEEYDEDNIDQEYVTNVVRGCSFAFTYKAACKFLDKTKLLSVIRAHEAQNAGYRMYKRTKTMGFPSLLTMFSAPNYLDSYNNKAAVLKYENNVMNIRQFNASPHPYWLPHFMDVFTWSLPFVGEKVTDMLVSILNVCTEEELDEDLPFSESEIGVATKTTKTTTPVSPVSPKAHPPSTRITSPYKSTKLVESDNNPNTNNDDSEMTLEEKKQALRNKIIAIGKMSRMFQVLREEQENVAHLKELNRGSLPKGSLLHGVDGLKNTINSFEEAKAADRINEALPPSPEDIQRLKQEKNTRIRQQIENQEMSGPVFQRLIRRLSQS

[18] = target: T5, Kappa-type opioid receptor; type: functional
[19] = target: T7, Beta-galactosidase (Escherichia coli, UniProt Q8VNN2); type: functional
T7 sequence (Q8VNN2 whole entry): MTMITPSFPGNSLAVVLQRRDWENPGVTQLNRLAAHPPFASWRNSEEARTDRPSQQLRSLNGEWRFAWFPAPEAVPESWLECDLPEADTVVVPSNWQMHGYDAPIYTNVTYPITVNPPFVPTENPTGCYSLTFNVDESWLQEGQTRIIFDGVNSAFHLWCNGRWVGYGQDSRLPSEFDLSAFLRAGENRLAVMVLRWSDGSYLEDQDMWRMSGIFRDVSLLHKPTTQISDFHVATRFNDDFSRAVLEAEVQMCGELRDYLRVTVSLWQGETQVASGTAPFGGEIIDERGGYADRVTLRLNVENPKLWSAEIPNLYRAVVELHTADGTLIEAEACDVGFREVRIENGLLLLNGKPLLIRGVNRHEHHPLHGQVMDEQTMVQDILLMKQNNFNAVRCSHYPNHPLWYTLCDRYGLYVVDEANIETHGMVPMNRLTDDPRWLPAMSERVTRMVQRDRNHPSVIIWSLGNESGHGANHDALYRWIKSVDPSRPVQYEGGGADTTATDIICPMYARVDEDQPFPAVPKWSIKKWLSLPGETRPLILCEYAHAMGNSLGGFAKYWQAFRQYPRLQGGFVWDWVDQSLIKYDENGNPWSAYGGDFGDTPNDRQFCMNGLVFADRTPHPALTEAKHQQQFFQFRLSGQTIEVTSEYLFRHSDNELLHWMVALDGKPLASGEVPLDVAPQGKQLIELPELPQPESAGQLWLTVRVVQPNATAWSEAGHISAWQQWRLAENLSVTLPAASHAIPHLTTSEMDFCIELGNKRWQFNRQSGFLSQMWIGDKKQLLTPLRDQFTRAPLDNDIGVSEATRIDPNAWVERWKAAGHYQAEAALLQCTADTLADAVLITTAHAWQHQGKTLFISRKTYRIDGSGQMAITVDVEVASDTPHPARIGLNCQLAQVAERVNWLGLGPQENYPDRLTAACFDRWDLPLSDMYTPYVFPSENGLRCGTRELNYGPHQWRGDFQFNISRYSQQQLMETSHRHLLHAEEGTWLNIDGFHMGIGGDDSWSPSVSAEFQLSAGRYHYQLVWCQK

[20] = target: T5, Kappa-type opioid receptor; type: functional; remark: listed apart in the source
[21] = target: Nonstructural protein 1 (Influenza A virus, UniProt Q194T2); type: functional, Influenza A virus (A/California/07/2009(H1N1))
Chain of Nonstructural protein 1 (Q194T2 whole entry): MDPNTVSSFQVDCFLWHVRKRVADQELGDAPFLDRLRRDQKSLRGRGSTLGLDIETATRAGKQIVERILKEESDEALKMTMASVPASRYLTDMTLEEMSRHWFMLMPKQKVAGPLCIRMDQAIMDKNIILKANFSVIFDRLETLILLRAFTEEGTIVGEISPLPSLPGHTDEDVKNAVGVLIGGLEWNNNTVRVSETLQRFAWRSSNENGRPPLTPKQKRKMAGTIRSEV

[22] = target: Heat shock protein HSP 90-alpha (Homo sapiens, UniProt P07900); type: functional, organism-based
[23] = system: Vero; assay: Vero cell cytotoxicity, cytotoxicity control for flavivirus capping enzyme inhibitors (AID 588742); type: functional; settings: Chlorocebus sabaeus
[24] = system: INS1; assay: beta cell apoptosis inhibitors, cytokine rescue, dose response, luminescence, retest (AID 449756); type: functional, cell-based; settings: Rattus norvegicus;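 further: cell death triggered by IL-1 beta plus TNF-alpha plus IFN-gamma mixture; protective hits raise ATP signal compared with cytokine alone wells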
[25] = target: ATP-dependent molecular chaperone HSP82 (Candida albicans (strain WO-1) (Yeast), UniProt C4YTQ8); assay: loss of DOC-induced GRE-beta-galactosidase reporter signal, dose response, Hsp90 inhibitor project, S. cerevisiae, luminescence (AID 2400); type: functional, cell-based;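 further: beta-galactosidase luminescence from glucocorticoid response element reporter as proxy for Hsp90 function; inhibitor potency where signal loss means Hsp90 inhibition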
Chain of ATP-dependent molecular chaperone HSP82 (C4YTQ8 whole entry): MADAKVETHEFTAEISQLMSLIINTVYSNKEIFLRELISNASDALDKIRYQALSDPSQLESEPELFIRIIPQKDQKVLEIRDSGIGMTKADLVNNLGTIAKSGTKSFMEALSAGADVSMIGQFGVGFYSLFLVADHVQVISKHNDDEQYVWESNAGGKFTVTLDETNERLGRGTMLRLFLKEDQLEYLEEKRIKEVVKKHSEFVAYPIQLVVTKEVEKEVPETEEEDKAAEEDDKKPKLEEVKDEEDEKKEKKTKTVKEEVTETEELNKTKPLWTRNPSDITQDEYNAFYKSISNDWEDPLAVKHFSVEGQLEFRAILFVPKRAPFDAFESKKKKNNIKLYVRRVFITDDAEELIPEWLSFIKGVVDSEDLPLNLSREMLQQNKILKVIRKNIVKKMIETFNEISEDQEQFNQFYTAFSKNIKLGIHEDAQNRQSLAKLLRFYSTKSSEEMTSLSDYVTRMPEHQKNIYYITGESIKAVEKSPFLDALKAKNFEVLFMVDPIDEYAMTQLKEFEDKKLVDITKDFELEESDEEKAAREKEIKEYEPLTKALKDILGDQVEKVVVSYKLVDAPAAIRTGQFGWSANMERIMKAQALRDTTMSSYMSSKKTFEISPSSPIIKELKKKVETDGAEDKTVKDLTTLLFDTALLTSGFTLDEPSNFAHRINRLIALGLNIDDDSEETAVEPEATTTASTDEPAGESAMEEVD

[26] = NIH-3T3 fibroblast cytotoxicity, dose response, cytotoxicity control for antifungal single agent project, cell-based, Alamar Blue, dry powder (AID 602188); type: functional
[27] = target: T7, Beta-galactosidase; assay: Dose response counterscreen for EBI2 assay utilizing the enzyme, b-galactosidase.; type: functional

CCOC(=O)C(O)(c1ccc(NC(=S)NC(=O)c2ccc(Cl)cc2Cl)c(C)c1)C(F)(F)F (configuration not stated)
EC50 [1]: 3.35 µM (active)

O=C1Nc2ccc([N+](=O)[O-])cc2C12NNc1ccccc1O2 (configuration not stated)
IC50 [2]: > 100 µM (inactive) | IC50 [3]: > 100 µM (inactive) | IC50 [4]: > 100 µM (inactive)

CCOc1ccc(NC(=O)c2cnn3c(O)cc(C4CCN(C(=O)OC(C)(C)C)CC4)nc23)cc1
IC50 [5]: > 99 µM (inactive) | EC50 [6]: 4.22 µM (active)

Cc1cc(C)n2nc3nc(N4CCCCC4)nc(-c4ccco4)c3c2n1
EC50 [7]: > 100 µM (inactive)

COc1cc(C(=S)NCc2ccccc2)ccc1O
IC50 [8]: 0.665 µM (active) | IC50 [9]: > 100 µM (inactive)

O=C(Cn1c(=O)c2cccn2c2cc(Br)cnc21)NCCCN1CCN(c2ccc3c(c2)OCO3)CC1
IC50 [10]: > 32 µM (inactive) | IC50 [11]: 2.42 µM (active) | IC50 [12]: > 32 µM (inactive) | IC50 [13]: 3.81 µM (active) | IC50 [14]: 0.147 µM (active)

C/C(=N\NC(=O)c1cc2ccccc2cc1O)c1ccccn1
EC50 [15]: > 150 µM (inactive) | EC50 [16]: 1.02 µM (active) | EC50 [17]: > 180 µM (inactive) | IC50 [18]: 2.14 µM (active) | EC50 [19]: > 31.5 µM (inactive) | IC50 [20]: > 32 µM | IC50 [21]: 3.77 µM (active) | AC50 [22]: 6.63 µM (active) | CC50 [23]: 1.93 µM (active) | AC50 [24]: 0.958 µM (active) | EC50 [25]: 4.08 µM (active) | AC50 [26]: 0.729 µM (active) | IC50 [27]: 136 µM (inactive)
